# Laboratory results taken from ChEMBL document CHEMBL5131435, “Boronic acid derivative activates pyruvate kinase M2 indispensable for redox metabolism in oral cancer cells” (Bioorg Med Chem Lett, 2022).
# The source made the active and inactive calls. The rule behind the calls is not given here.
# Legend:
# Type in all cases: cell-based
# Pyruvate kinase PKM [1] = target: T1, Pyruvate kinase PKM (Homo sapiens, UniProt P14618); test: Activation of PKM2 in human CAL-27 cells assessed as increased in TPI1 activity at 52 nM measured after 3 hrs; settings: filed as activator
# Target sequence in this assay (P14618 2-531 limits assumed): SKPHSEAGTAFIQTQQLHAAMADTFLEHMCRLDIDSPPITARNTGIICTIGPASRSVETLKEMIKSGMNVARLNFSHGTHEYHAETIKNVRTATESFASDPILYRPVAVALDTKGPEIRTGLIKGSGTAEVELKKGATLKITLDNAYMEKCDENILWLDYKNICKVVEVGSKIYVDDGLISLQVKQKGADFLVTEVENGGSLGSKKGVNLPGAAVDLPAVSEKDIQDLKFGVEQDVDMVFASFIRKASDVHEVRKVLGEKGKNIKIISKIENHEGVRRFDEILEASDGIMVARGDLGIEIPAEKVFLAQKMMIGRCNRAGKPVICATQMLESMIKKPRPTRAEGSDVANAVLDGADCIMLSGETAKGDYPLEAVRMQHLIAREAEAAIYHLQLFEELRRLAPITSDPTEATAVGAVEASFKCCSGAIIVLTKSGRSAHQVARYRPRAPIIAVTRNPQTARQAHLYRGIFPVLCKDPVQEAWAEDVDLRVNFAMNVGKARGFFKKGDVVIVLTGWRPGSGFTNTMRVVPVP
# Pyruvate kinase PKM [2] = target: T1, Pyruvate kinase PKM; test: Activation of PKM2 in human CAL-27 cells assessed as decrease in GSH level at 52 nM; settings: filed as activator
# Target sequence in this assay (P14618 2-531 limits assumed): as above
# Pyruvate kinase PKM [3] = target: T1, Pyruvate kinase PKM; test: Activation of PKM2 in human CAL-27 cells measured after 3 hrs
# Pyruvate kinase PKM [4] = target: T1, Pyruvate kinase PKM; test: Activation of PKM2 in human CAL-27 cells assessed as increased in TPI1 activity at 12.5 to 50 nM measured after 3 hrs; settings: filed as activator, dose 12.5-50 nM
# Target sequence in this assay (P14618 2-531 limits assumed): as above
# Pyruvate kinase PKM [5] = target: T1, Pyruvate kinase PKM; test: Activation of PKM2 in human CAL-27 cells assessed as decrease in NADP+/NADPH ratio at 12.5 to 50 nM; settings: filed as activator, dose 12.5-50 nM
# Target sequence in this assay (P14618 2-531 limits assumed): as above
# Pyruvate kinase PKM [6] = target: T1, Pyruvate kinase PKM; test: Activation of PKM2 in human CAL-27 cells assessed as decrease in lactate levels at 12.5 to 50 nM; settings: filed as activator, dose 12.5-50 nM
# Target sequence in this assay (P14618 2-531 limits assumed): as above
# Pyruvate kinase PKM [7] = target: T1, Pyruvate kinase PKM; test: Activation of PKM2 in human CAL-27 cells assessed as decrease in GSH level at 12.5 to 50 nM; settings: filed as activator, dose 12.5-50 nM
# Target sequence in this assay (P14618 2-531 limits assumed): as above
Activity (Pyruvate kinase PKM [1]),Activity (Pyruvate kinase PKM [2]),AC50 (Pyruvate kinase PKM [3]) [nM],Activity (Pyruvate kinase PKM [4]),Activity (Pyruvate kinase PKM [5]),"Activity (Pyruvate kinase PKM [3]; filed as activator, dose 10-100 nM, DDE = dose-dependent effect)",Activity (Pyruvate kinase PKM [6]),Activity (Pyruvate kinase PKM [7]),SMILES
Active,Active,52,–,–,–,–,–,Nc1cccc(S(=O)(=O)N2CCCN(S(=O)(=O)c3ccc4c(c3)OCCO4)CC2)c1
–,–,50,Active,Active,Dde,Active,Active,CCOC(=O)/C(=C\c1ccc(B(O)O)cc1)C(=O)c1sc(Nc2ccc(Cl)cc2)nc1N(C)C
